In patent US10757941B2, “Microbiocidal oxadiazole derivatives” (SYNGENTA PARTICIPATIONS AG, priority 2016, dated 2020):

Assays:
[1] = test system: Puccinia recondita f. Sp. Tritici; experiment: Fungicidal activity against Puccinia recondita f. sp. tritici / wheat / leaf disc preventative (brown rust); type: in vivo; conditions: foliar, 200 ppm in the applied formulation, wheat leaf segments cv. Kanzler, preventative (inoculated 1 day after application), assessed 7 to 9 days after application, compared to untreated, read-out: disease control
Procedure: Leaf disks or leaf segments of various plant species are cut from plants grown in a greenhouse. The cut leaf disks or segments are placed in multiwell plates (24-well format) onto water agar. The leaf disks are sprayed with a test solution before (preventative) or after (curative) inoculation. Compounds to be tested are prepared as DMSO solutions (max. 10 mg/ml) which are diluted to the appropriate concentration with 0.025% Tween20 just before spraying. The inoculated leaf disks or segments are incubated under defined conditions (temperature, relative humidity, light, etc.) according to the respective test system. A single evaluation of disease level is carried out 3 to 14 days after inoculation, depending on the pathosystem. Percent disease control relative to the untreated check leaf disks or segments is then calculated. Example 1: Fungicidal Activity Against Puccinia recondita f. Sp. Tritici/Wheat/Leaf Disc Preventative (Brown Rust) Wheat leaf segments cv. Kanzler were placed on agar in multiwell plates (24-well format) and sprayed with the formulated test compound diluted in water. The leaf disks were inoculated with a spore suspension of the fungus 1 day after application. The inoculated leaf segments were incubated at 19° C. and 75% relative humidity (rh) under a light regime of 12 hours light/12 hours darkness in a climate cabinet and the activity of a compound was assessed as percent disease control compared to untreated when an appropriate level of disease damage appears in untreated check leaf segments (7 to 9 days after application). The following compounds at 200 ppm in the applied formulation give at least 80% disease control in this test when compared to untreated control leaf disks under the same conditions, which show extensive disease development.

[2] = test system: Puccinia recondita f. Sp. Tritici; experiment: Fungicidal activity against Puccinia recondita f. sp. tritici / wheat / leaf disc curative (brown rust); type: in vivo; conditions: foliar, 200 ppm in the applied formulation, wheat leaf segments cv. Kanzler, curative (applied 1 day after inoculation), assessed 6 to 8 days after application, compared to untreated, read-out: disease control
Procedure: Leaf disks or leaf segments of various plant species are cut from plants grown in a greenhouse. The cut leaf disks or segments are placed in multiwell plates (24-well format) onto water agar. The leaf disks are sprayed with a test solution before (preventative) or after (curative) inoculation. Compounds to be tested are prepared as DMSO solutions (max. 10 mg/ml) which are diluted to the appropriate concentration with 0.025% Tween20 just before spraying. The inoculated leaf disks or segments are incubated under defined conditions (temperature, relative humidity, light, etc.) according to the respective test system. A single evaluation of disease level is carried out 3 to 14 days after inoculation, depending on the pathosystem. Percent disease control relative to the untreated check leaf disks or segments is then calculated. Example 2: Fungicidal Activity Against Puccinia recondita f. Sp. Tritici/Wheat/Leaf Disc Curative (Brown Rust) Wheat leaf segments cv. Kanzler are placed on agar in multiwell plates (24-well format). The leaf segments are then inoculated with a spore suspension of the fungus. Plates were stored in darkness at 19° C. and 75% relative humidity. The formulated test compound diluted in water was applied 1 day after inoculation. The leaf segments were incubated at 19° C. and 75% relative humidity under a light regime of 12 hours light/12 hours darkness in a climate cabinet and the activity of a compound was assessed as percent disease control compared to untreated when an appropriate level of disease damage appears in untreated check leaf segments (6 to 8 days after application). The following compounds at 200 ppm in the applied formulation give at least 80% disease control in this test when compared to untreated control leaf disks under the same conditions, which show extensive disease development.

[3] = test system: Glomerella lagenarium (Colletotrichum lagenarium); experiment: Fungicidal activity against Glomerella lagenarium (Colletotrichum lagenarium) liquid culture / cucumber / preventative (anthracnose); type: cell-based; conditions: Colletotrichum orbiculare; 20 ppm in the applied formulation; liquid culture in PDB, 24° C.; inhibition of growth measured photometrically 3 to 4 days after application; compared to untreated; read-out: disease control
Procedure: Mycelia fragments or conidia suspensions of a fungus prepared either freshly from liquid cultures of the fungus or from cryogenic storage, are directly mixed into nutrient broth. DMSO solutions of the test compound (max. 10 mg/ml) are diluted with 0.025% Tween20 by a factor of 50 and 10 μl of this solution is pipetted into a microtiter plate (96-well format). The nutrient broth containing the fungal spores/mycelia fragments is then added to give an end concentration of the tested compound. The test plates are incubated in the dark at 24° C. and 96% relative humidity. The inhibition of fungal growth is determined photometrically after 2 to 7 days, depending on the pathosystem, and percent antifungal activity relative to the untreated check is calculated. Example 4: Fungicidal Activity Against Glomerella lagenarium (Colletotrichum lagenarium) Liquid Culture/Cucumber/Preventative (Anthracnose) Conidia of the fungus from cryogenic storage are directly mixed into nutrient broth (PDB—potato dextrose broth). After placing a (DMSO) solution of test compound into a microtiter plate (96-well format), the nutrient broth containing the fungal spores is added. The test plates are incubated at 24° C. and the inhibition of growth is measured photometrically 3 to 4 days after application. The following compounds at 20 ppm in the applied formulation give at least 80% disease control in this test when compared to untreated control under the same conditions, which show extensive disease development.

Uromyces viciae-fabael = experiment: Fungicidal activity against Uromyces viciae-fabae / field bean / leaf disc preventative (faba-bean rust); type: in vivo; conditions: foliar, 288 h, 100 ppm in the applied formulation, field bean leaf discs, preventative (inoculated two hours after application), assessed 12 days after application, compared to untreated, read-out: disease control
Procedure: Leaf disks or leaf segments of various plant species are cut from plants grown in a greenhouse. The cut leaf disks or segments are placed in multiwell plates (24-well format) onto water agar. The leaf disks are sprayed with a test solution before (preventative) or after (curative) inoculation. Compounds to be tested are prepared as DMSO solutions (max. 10 mg/ml) which are diluted to the appropriate concentration with 0.025% Tween20 just before spraying. The inoculated leaf disks or segments are incubated under defined conditions (temperature, relative humidity, light, etc.) according to the respective test system. A single evaluation of disease level is carried out 3 to 14 days after inoculation, depending on the pathosystem. Percent disease control relative to the untreated check leaf disks or segments is then calculated. Example 5: Fungicidal Activity Against Uromyces viciae-fabael Field Bean/Leaf Disc Preventative (Faba-Bean Rust) Field bean leaf discs are placed on water agar in multiwell plates (96-well format) and 10 μl of the formulated test compound diluted in acetone and a spreader pipetted onto the leaf disc. Two hours after application leaf discs are inoculated by spraying a spore suspension on the lower leaf surface. The leaf discs are incubated in a climate cabinet at 22° C. with 18 hour day and 70% relative humidity. The activity of a compound is assessed as percent disease control compared to untreated when an appropriate level of disease damage appears in untreated check leaf disks (12 days after application). The following compounds at 100 ppm in the applied formulation give at least 80% disease control in this test when compared to untreated control leaf discs under the same conditions, which show extensive disease development.

Phakopsora pachyrhizi = experiment: Fungicidal activity against Phakopsora pachyrhizi / soybean / leaf disc preventative (Asian soybean rust); type: in vivo; conditions: foliar, 200 ppm in the applied formulation, soybean leaf disks, preventative (inoculated one day after application), assessed 12 to 14 days after application, compared to untreated, read-out: disease control
Procedure: Leaf disks or leaf segments of various plant species are cut from plants grown in a greenhouse. The cut leaf disks or segments are placed in multiwell plates (24-well format) onto water agar. The leaf disks are sprayed with a test solution before (preventative) or after (curative) inoculation. Compounds to be tested are prepared as DMSO solutions (max. 10 mg/ml) which are diluted to the appropriate concentration with 0.025% Tween20 just before spraying. The inoculated leaf disks or segments are incubated under defined conditions (temperature, relative humidity, light, etc.) according to the respective test system. A single evaluation of disease level is carried out 3 to 14 days after inoculation, depending on the pathosystem. Percent disease control relative to the untreated check leaf disks or segments is then calculated. Example 3: Fungicidal Activity Against Phakopsora pachyrhizi/Soybean/Leaf Disc Preventative (Asian Soybean Rust) Soybean leaf disks are placed on water agar in multiwell plates (24-well format) and sprayed with the formulated test compound diluted in water. One day after application leaf discs are inoculated by spraying a spore suspension on the lower leaf surface. After an incubation period in a climate cabinet of 24-36 hours in darkness at 20° C. and 75% rh leaf disc are kept at 20° C. with 12 h light/day and 75% rh. The activity of a compound is assessed as percent disease control compared to untreated when an appropriate level of disease damage appears in untreated check leaf disks (12 to 14 days after application). The following compounds at 200 ppm in the applied formulation give at least 80% disease control in this test when compared to untreated control leaf disks under the same conditions, which show extensive disease development.

CN(C(=O)c1ccc(-c2noc(C(F)(F)F)n2)c(F)c1)C1CCN(C(=O)OC(C)(C)C)C1 (stereo not drawn) [Compound 1.2, tert-butyl 3-[[3-fluoro-4-[5-(trifluoromethyl)-1,2,4-oxadiazol-3-yl]benzoyl]-methyl-amino]pyrrolidine-1-carboxylate]
≥ 80%: pest or weed control at 200 ppm [1] | pest or weed control at 200 ppm [2] | inhibition of growth at 20 ppm [3] | pest or weed control at 100 ppm (Uromyces viciae-fabael)

COc1ccc2[nH]cc(CCNC(=O)c3ccc(-c4noc(C(F)(F)F)n4)c(F)c3)c2c1 [Compound 1.4, 3-fluoro-N-[2-(5-methoxy-1H-indol-3-yl)ethyl]-4-[5-(trifluoromethyl)-1,2,4-oxadiazol-3-yl]benzamide]
≥ 80%: pest or weed control at 200 ppm [1] | pest or weed control at 200 ppm (Phakopsora pachyrhizi) | inhibition of growth at 20 ppm [3] | pest or weed control at 100 ppm (Uromyces viciae-fabael)

CN(C(=O)c1ccc(-c2noc(C(F)(F)F)n2)c(F)c1)c1ccccn1 [Compound 1.5, 3-fluoro-N-methyl-N-(2-pyridyl)-4-[5-(trifluoromethyl)-1,2,4-oxadiazol-3-yl]benzamide]
≥ 80%: pest or weed control at 200 ppm [1] | pest or weed control at 200 ppm [2] | inhibition of growth at 20 ppm [3]

CSCCCNC(=O)c1ccc(-c2noc(C(F)(F)F)n2)c(F)c1 [Compound 1.6, 3-fluoro-N-(3-methylsulfanyl-propyl)-4-[5-(trifluoromethyl)-1,2,4-oxadiazol-3-yl]benzamide]
≥ 80%: pest or weed control at 200 ppm [1] | pest or weed control at 200 ppm [2] | pest or weed control at 100 ppm (Uromyces viciae-fabael)

C#CC1(NC(=O)c2ccc(-c3noc(C(F)(F)F)n3)c(F)c2)CCCCC1 [Compound 1.8, N-(1-ethynylcyclohexyl)-3-fluoro-4-[5-(trifluoromethyl)-1,2,4-oxadiazol-3-yl]benzamide]
≥ 80%: pest or weed control at 200 ppm [1] | pest or weed control at 200 ppm (Phakopsora pachyrhizi) | inhibition of growth at 20 ppm [3] | pest or weed control at 100 ppm (Uromyces viciae-fabael)

O=C(NCCSCc1ccc(Cl)nc1)c1ccc(-c2noc(C(F)(F)F)n2)c(F)c1 [Compound 1.10, N-[2-[(6-chloro-3-pyridyl)methyl-sulfanyl]ethyl]-3-fluoro-4-[5-(trifluoromethyl)-1,2,4-oxadiazol-3-yl]benzamide]
≥ 80%: pest or weed control at 200 ppm [1] | pest or weed control at 200 ppm (Phakopsora pachyrhizi) | inhibition of growth at 20 ppm [3] | pest or weed control at 100 ppm (Uromyces viciae-fabael)

COC(=O)C1(NC(=O)c2ccc(-c3noc(C(F)(F)F)n3)c(F)c2)CCN(OC)CC1 [Compound 1.13, methyl 4-[[3-fluoro-4-[5-(trifluoromethyl)-1,2,4-oxadiazol-3-yl]benzoyl]amino]-1-methoxy-piperidine-4-carboxylate]
≥ 80%: pest or weed control at 200 ppm [1] | pest or weed control at 200 ppm [2] | pest or weed control at 100 ppm (Uromyces viciae-fabael)

CC(C)(CS(C)(=O)=O)NC(=O)c1ccc(-c2noc(C(F)(F)F)n2)c(F)c1 [Compound 1.22, N-(1,1-dimethyl-2-methylsulfonyl-ethyl)-3-fluoro-4-[5-(trifluoromethyl)-1,2,4-oxadiazol-3-yl]benzamide]
≥ 80%: pest or weed control at 200 ppm [1] | pest or weed control at 200 ppm [2] | pest or weed control at 100 ppm (Uromyces viciae-fabael)

O=C(NCC1CC(F)(F)C1(F)F)c1ccc(-c2noc(C(F)(F)F)n2)c(F)c1 (stereo not drawn) [Compound 1.23, 3-fluoro-N-[(2,2,3,3-tetrafluoro-cyclobutyl)methyl]-4-[5-(trifluoromethyl)-1,2,4-oxadiazol-3-yl]benzamide]
≥ 80%: pest or weed control at 200 ppm [1] | pest or weed control at 200 ppm (Phakopsora pachyrhizi) | inhibition of growth at 20 ppm [3] | pest or weed control at 100 ppm (Uromyces viciae-fabael)

CC(C)CC(C)NC(=O)c1ccc(-c2noc(C(F)(F)F)n2)c(F)c1 (stereo not drawn) [Compound 1.38, N-(1,3-dimethylbutyl)-3-fluoro-4-[5-(trifluoromethyl)-1,2,4-oxadiazol-3-yl]benzamide]
≥ 80%: pest or weed control at 200 ppm [1] | pest or weed control at 200 ppm (Phakopsora pachyrhizi) | inhibition of growth at 20 ppm [3] | pest or weed control at 100 ppm (Uromyces viciae-fabael)

O=C(Nc1nccnn1)c1ccc(-c2noc(C(F)(F)F)n2)c(F)c1 [Compound 1.42, 3-fluoro-N-(1,2,4-triazin-3-yl)-4-[5-(trifluoromethyl)-1,2,4-oxadiazol-3-yl]benzamide]
≥ 80%: pest or weed control at 200 ppm [1] | pest or weed control at 200 ppm [2] | inhibition of growth at 20 ppm [3]
